Reference: patent US20250179047A1, “5-[7-(3,4-DIHYDRO-1H-ISOQUINOLINE-2-CARBONYL)-1,2,3,4 TETRAHYDROISOQUINOLIN-6-YL]-1H-PYRROLE-3-CARBOXAMIDE DERIVATIVES, PHARMACEUTICAL COMPOSITIONS CONTAINING THEM AND THEIR USES AS PRO-APOPTOTIC AGENTS” (LES LABORATOIRES SERVIER, priority 2022, published 2025)

Tests used:
BCL2 G101V [1] = molecular target: BCL2 G101V (Homo sapiens, UniProt P10415, G101V); test: TR-FRET competitive binding assay, BCL2 G101V; settings: BCL2 G101V; Ki determined from IC50; read-out: TR_FRET EKI_Bcl2 G101V
Description: (§1) The relative binding potency of each compound was determined in a competitive binding assay using time resolved-fluorescence resonance energy transfer (TR-FRET). The method utilised a fluorescein labelled peptide derived from PUMA (5Flu-Ahx-[…]-NH2 wherein Ahx means 6-hexanoic acid monomer and the amino acid sequence is referred to as SEQ ID:01) which binds to a terbium labelled BCL2 or BCLXL protein. The degree of binding or corresponding compound inhibition can be quantified by the TR-FRET signal between the terbium donor and fluorescein acceptor.
(§2) The human BCL2_wild-type (also named BCL2_wt), BCL2_G101V mutant and BCLXL_wild-type were E. coli expressed as a N-terminal Halo-fusion proteins and singly labelled with Terbium on the Halo protein to afford the following amino acid sequences:
(§3) wherein the BCL2(1-207) sequence corresponds to UniProtKB® primary accession number P10415 and the BCLXL(2-196) sequence corresponds to UniProtKB® primary accession number Q07817-1.
(§4) The assay was performed in a 40 μL volume in white 384-standard well plates (Corning #3574). An 11-point serial dilution of each compound was prepared in DMSO and transferred directly to plate followed by addition of fluorescein labelled peptide and lastly protein. Final assay conditions were 0.5 nM BCL2_wt, BCL2_G101V, BCL2_D103Y, BCL2_F104I, BCL2_D111A or BCLXL_wt, 2 or 20 nM fluorescein labelled peptide, 50 mM Hepes pH 7.5, 150 mM NaCl, 0.5 mM TCEP (Tris(2-carboxyethyl)phosphine), 0.05% Tween 20, 5% DMSO. The mixture was incubated for 2 hours at 23° C.
(§5) TR-FRET measurements were performed on a Biotek Synergy Neo plate reader. TR-FRET was measured by excitation of the Terbium-donor at 340 nm and subsequent (delay time 100 μs) measurement of terbium and fluorescein emission at 495 nm and 520 nm, respectively, over a collection time of 300 μs. The TR-FRET signal was calculated as the emission-ratio at 520 nm over 495 nm.
(§6) The TR-FRET ratio readout for test compounds was normalized against 0% inhibition controls wells and 100% inhibition control wells. Test compound potency (IC50) was estimated by nonlinear regression using the sigmoidal dose-response (variable slope) using Xlfit 4 (IDBS, Guildford, Surrey, UK, model 205). Were the IC50 could not be determined the % inhibition at the highest tested concentration is given.
(§7) y=(A+((B−A)/(1+((C/x)^D))))
(§8) where y is the normalized TR-TRET ratio measurement for a given concentration of test compound, x is the concentration of test compound, A is the estimated efficacy (% inhibition) at infinite compound dilution, and B is the maximal efficacy (% inhibition). C is the IC50 value and D is the Hill slope coefficient.
(§9) The K1 values were determined from the IC50 values according to Cer et al, Nucleic Acids Res, 2009, July 1; 37 (WebServer issue): W441-W445.

BCL2 G101V [2] = test: TR-FRET competitive binding assay, BCL2 G101V; design: species or system human; settings: ratio Ki BCL2 G101V / Ki BCL2 WT
Description: as §1, §2, §3, §4, §5, §6, §7, §8, §9

KMS-12-PE Bcl-2 WT = test: In vitro cytotoxicity CellTiter-Glo 48 h, KMS-12-PE Bcl-2 WT; format: cell-based; settings: Homo sapiens, KMS-12-PE, C50 = concentration needed to reach 50% of the cellular viability
Description: KMS-12-PE (ACC 606) were purchased from the Leibniz-Institute DSMZ (Braunschweig, Germany) and were grown at 37° C. in a humidified atmosphere with […] in media recommended by the suppliers. Lentiviral particles containing Bcl-2 wild type (also named “Bcl2 WT”) and Bcl-2 mutated on G101V (also named “Bcl2 G101V”) were cloned into pcLV-CMV-DEST-IRES-TagRFP. Lentiviral particles (1×106) were mixed with Polybrene at 8 µg/ml and transduced by spinoculation for 1 h at 32° C. and incubated overnight. After 8 days, TagRFP positive-cells were sorted by FACS. BCL2 expression was monitored by immunoblotting using anti-Flag and anti-BCL2 antibodies.
Cellular viability was monitored with the cell viability assay (CellTiter-Glo®) on KMS-12-PE WT and G101V cell lines. The CellTiter-Glo® (CTG) Luminescent Cell Viability Assay (from Promega) is a homogeneous method to determine the number of viable cells in culture based on quantitation of the ATP present, which signals the presence of metabolically active cells.
Dose response of compounds are performed with 10 mM stock solutions (DMSO), 11-points curve, in a 384-well compound plate. The assay plate is prepared by stamping 40 nL from compound dilution plate of all different concentrations (e.g. 10 mM to have final […] assay test) into a cell culture microplate, using Echo acoustic liquid handling (Labcyte, Beckman). 40 μl of cell solution is added and cells are incubated with compounds for 48 h at 37° C., 5% CO2. CTG was added to the cells (according to the manufacturer instructions) and luminescence intensity was recorded using the Pherastar plate reader (BMG).
This assay provides in vitro cellular potency of the tested Bcl-2 inhibitors, measuring the C50, defined as the concentration needed to reach 50% of the cellular viability.

BCL2 D103Y = BCL2 D103Y (Homo sapiens, UniProt P10415, D103Y); test: TR-FRET competitive binding assay, BCL2 D103Y; settings: Ki determined from IC50, read-out: TR_FRET EKI_Bcl2 D103Y
Description: as §1, §2, §3, §4, §5, §6, §7, §8, §9

BCLXL WT = BCLXL WT (Homo sapiens (Human), UniProt Q07817); test: TR-FRET competitive binding assay, BCLXL WT; settings: for Ki: BCLXL WT, Ki determined from IC50, read-out: TR_FRET EKI BclxL; for TR_FRET EKI BCLxL/WT selectivty ratio: ratio Ki BCLxL / Ki BCL2 WT
Description: as §1, §2, §3, §4, §5, §6, §7, §8, §9

BCL2 WT = BCL2 WT (Homo sapiens (Human), UniProt P10415); test: TR-FRET competitive binding assay, BCL2 WT; settings: Ki determined from IC50, read-out: TR_FRET EKI_Bcl2 WT
Description: as §1, §2, §3, §4, §5, §6, §7, §8, §9

Chain of BCLXL WT (Q07817 other isoform, or with tags, fused parts or gaps): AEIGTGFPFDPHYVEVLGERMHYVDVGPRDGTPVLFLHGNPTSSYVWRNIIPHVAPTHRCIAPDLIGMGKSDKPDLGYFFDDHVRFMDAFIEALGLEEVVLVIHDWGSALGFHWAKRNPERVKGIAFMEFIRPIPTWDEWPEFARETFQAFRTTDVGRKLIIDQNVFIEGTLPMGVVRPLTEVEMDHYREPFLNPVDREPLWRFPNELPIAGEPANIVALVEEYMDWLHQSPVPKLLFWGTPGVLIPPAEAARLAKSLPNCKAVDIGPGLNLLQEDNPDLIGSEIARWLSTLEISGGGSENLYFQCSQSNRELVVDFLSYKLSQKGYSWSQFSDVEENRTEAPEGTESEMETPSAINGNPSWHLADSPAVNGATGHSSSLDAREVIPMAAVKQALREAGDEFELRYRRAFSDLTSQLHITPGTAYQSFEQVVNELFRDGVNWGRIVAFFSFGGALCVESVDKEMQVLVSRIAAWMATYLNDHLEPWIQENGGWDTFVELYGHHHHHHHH

| Ki (BCL2 G101V [1]) | TR_FRET EKI G101V/WT selectivty ratio (BCL2 G101V [2]) | Ki (BCL2 D103Y) | Ki (BCLXL WT) | TR_FRET EKI BCLxL/WT selectivty ratio (BCLXL WT) | Ki (BCL2 WT) | SMILES | IC50 (KMS-12-PE Bcl-2 WT) |
| --- | --- | --- | --- | --- | --- | --- | --- |
| 5.6 nM | 43.8 | 0.35 nM | 15.1 nM | 117.3 | 0.13 nM | COc1ncc(N(C(=O)c2cc(-c3cc4c(cc3C(=O)N3Cc5ccccc5C[C@H]3C)CN(C(=O)Cc3ccc(OCCN5CCOCC5)cc3)CC4)n(C)c2C)c2ccccc2)cc1F [Example 183, N-(5-fluoro-6-methoxy-3-pyridyl)-1,2-dimethyl-5-[7-[(3R)-3-methyl-3,4-dihydro-1H-isoquinoline-2-carbonyl]-2-[2-[4-(2-morpholinoethoxy)phenyl]acetyl]-3,4-dihydro-1H-isoquinolin-6-yl]-N-phenyl-pyrrole-3-carboxamide] | 0.0143 µM |
| 2 nM | 66.2 | 0.09 nM | 12.3 nM | 411.3 | 0.03 nM | Cc1c(C(=O)N(c2ccccc2)c2cnn(C)c2)cc(-c2cc3c(cc2C(=O)N2Cc4ccccc4C[C@H]2C)CN(C(=O)Cc2ccc(OCCN4CCOCC4)cc2)CC3)n1C [Example 184, 1,2-dimethyl-5-[7-[(3R)-3-methyl-3,4-dihydro-1H-isoquinoline-2-carbonyl]-2-[2-[4-(2-morpholinoethoxy)phenyl]acetyl]-3,4-dihydro-1H-isoquinolin-6-yl]-N-(1-methylpyrazol-4-yl)-N-phenyl-pyrrole-3-carboxamide] | 0.0061 µM |
| 1.5 nM | 23.4 | 0.13 nM | 5.9 nM | 92.8 | 0.06 nM | Cc1c(N(C(=O)c2cc(-c3cc4c(cc3C(=O)N3Cc5ccccc5C[C@H]3C)CN(C(=O)Cc3ccc(OCCN5CCOCC5)cc3)CC4)n(C)c2C)c2ccc(F)cc2)cc(C#N)n1C [Example 185, N-(5-cyano-1,2-dimethyl-pyrrol-3-yl)-N-(4-fluorophenyl)-1,2-dimethyl-5-[7-[(3R)-3-methyl-3,4-dihydro-1H-isoquinoline-2-carbonyl]-2-[2-[4-(2-morpholinoethoxy)phenyl]acetyl]-3,4-dihydro-1H-isoquinolin-6-yl]pyrrole-3-carboxamide] | 0.0051 µM |
| 2.7 nM | 78.9 | 0.08 nM | 17.3 nM | 507.9 | 0.03 nM | Cc1nn(C)cc1N(C(=O)c1cc(-c2cc3c(cc2C(=O)N2Cc4ccccc4C[C@H]2C)CN(C(=O)Cc2ccc(OCCN4CCOCC4)cc2F)CC3)n(C)c1C)c1ccccc1 [Example 187, N-(1,3-dimethylpyrazol-4-yl)-5-[2-[2-[2-fluoro-4-(2-morpholinoethoxy)phenyl]acetyl]-7-[(3R)-3-methyl-3,4-dihydro-1H-isoquinoline-2-carbonyl]-3,4-dihydro-1H-isoquinolin-6-yl]-1,2-dimethyl-N-phenyl-pyrrole-3-carboxamide] | 0.0069 µM |
| 2.2 nM | 71.6 | 0.09 nM | 23.9 nM | 769.6 | 0.03 nM | Cc1nn(C)cc1N(C(=O)c1cc(-c2cc3c(cc2C(=O)N2Cc4ccccc4C[C@H]2C)CN(C(=O)Cc2ccc(OCCN4CCOCC4)cc2)CC3)n(C)c1C)c1ccccc1 [Example 188, N-(1,3-dimethylpyrazol-4-yl)-1,2-dimethyl-5-[7-[(3R)-3-methyl-3,4-dihydro-1H-isoquinoline-2-carbonyl]-2-[2-[4-(2-morpholinoethoxy)phenyl]acetyl]-3,4-dihydro-1H-isoquinolin-6-yl]-N-phenyl-pyrrole-3-carboxamide] | 0.0113 µM |
| 17.4 nM | 92.0 | 1.99 nM | 33.4 nM | 176.8 | 0.19 nM | COCC(=O)N1CCc2cc(-c3cc(C(=O)N(c4ccccc4)c4cc(C#N)n(C)c4C)c(C)n3C)c(C(=O)N3Cc4ccccc4C[C@H]3CN3CCCCC3)cc2C1 [Example 189, N-(5-cyano-1,2-dimethyl-pyrrol-3-yl)-5-[2-(2-methoxyacetyl)-7-[(3S)-3-(1-piperidylmethyl)-3,4-dihydro-1H-isoquinoline-2-carbonyl]-3,4-dihydro-1H-isoquinolin-6-yl]-1,2-dimethyl-N-phenyl-pyrrole-3-carboxamide] | 0.0299 µM |
| 3.6 nM | 73.4 | 0.12 nM | 16.8 nM | 342.7 | 0.05 nM | Cc1c(C(=O)N(c2ccccc2)c2cnn(C(F)F)c2)cc(-c2cc3c(cc2C(=O)N2Cc4ccccc4C[C@H]2C)CN(C(=O)Cc2ccc(OCCN4CCOCC4)cc2)CC3)n1C [Example 190, N-[1-(difluoromethyl)pyrazol-4-yl]-1,2-dimethyl-5-[7-[(3R)-3-methyl-3,4-dihydro-1H-isoquinoline-2-carbonyl]-2-[2-[4-(2-morpholinoethoxy)phenyl]acetyl]-3,4-dihydro-1H-isoquinolin-6-yl]-N-phenyl-pyrrole-3-carboxamide] | 0.0077 µM |
| 2.4 nM | 65.3 | 0.07 nM | 9.5 nM | 264.0 | 0.04 nM | COc1ccc(N(C(=O)c2cc(-c3cc4c(cc3C(=O)N3Cc5ccccc5C[C@H]3C)CN(C(=O)Cc3ccc(OCCN5CCOCC5)cc3)CC4)n(C)c2C)c2ccccc2)cn1 [Example 191, N-(6-methoxy-3-pyridyl)-1,2-dimethyl-5-[7-[(3R)-3-methyl-3,4-dihydro-1H-isoquinoline-2-carbonyl]-2-[2-[4-(2-morpholinoethoxy)phenyl]acetyl]-3,4-dihydro-1H-isoquinolin-6-yl]-N-phenyl-pyrrole-3-carboxamide] | 0.0131 µM |
